Values quoted from earlier work, collected in patent US20160000716A1, “METHOD OF TREATING VITAMIN B12 DEFICIENCY” (Pharmaceutical Productions Inc., priority 2013, published 2016).

Details: over a wide dosing range, independent of the presence of intrinsic factor

Vitamin B-12
Fraction of oral Vitamin B-12 absorbed: approximately 1.2%
